This is an account of results in ChEMBL document CHEMBL5523684, “Development of a tetrahydroindazolone-based HDAC6 inhibitor with in-vivo anti-arthritic activity” (Bioorg Med Chem, 2024).

A word on the pIC50: it is the IC50 on a negative log10 scale, so that one unit is a factor of ten.

pIC50: −log10 of the molar value. A value given as a limit tells only on which side of the number the result lay.

The species named for one assay is Homo sapiens. In words: Selectivity index, ratio of IC50 for inhibition of his-tagged human recombinant HDAC1 using fluor de lys-SIRT1 as substrate to IC50 for inhibition of N-terminal GST-tagged human recombinant HDAC6 expressed in Spodoptera frugiperda.
Assay [1] has as its target T1, Protein deacetylase HDAC6 (Homo sapiens, UniProt Q9UBN7).
T1 sequence (Q9UBN7 whole entry): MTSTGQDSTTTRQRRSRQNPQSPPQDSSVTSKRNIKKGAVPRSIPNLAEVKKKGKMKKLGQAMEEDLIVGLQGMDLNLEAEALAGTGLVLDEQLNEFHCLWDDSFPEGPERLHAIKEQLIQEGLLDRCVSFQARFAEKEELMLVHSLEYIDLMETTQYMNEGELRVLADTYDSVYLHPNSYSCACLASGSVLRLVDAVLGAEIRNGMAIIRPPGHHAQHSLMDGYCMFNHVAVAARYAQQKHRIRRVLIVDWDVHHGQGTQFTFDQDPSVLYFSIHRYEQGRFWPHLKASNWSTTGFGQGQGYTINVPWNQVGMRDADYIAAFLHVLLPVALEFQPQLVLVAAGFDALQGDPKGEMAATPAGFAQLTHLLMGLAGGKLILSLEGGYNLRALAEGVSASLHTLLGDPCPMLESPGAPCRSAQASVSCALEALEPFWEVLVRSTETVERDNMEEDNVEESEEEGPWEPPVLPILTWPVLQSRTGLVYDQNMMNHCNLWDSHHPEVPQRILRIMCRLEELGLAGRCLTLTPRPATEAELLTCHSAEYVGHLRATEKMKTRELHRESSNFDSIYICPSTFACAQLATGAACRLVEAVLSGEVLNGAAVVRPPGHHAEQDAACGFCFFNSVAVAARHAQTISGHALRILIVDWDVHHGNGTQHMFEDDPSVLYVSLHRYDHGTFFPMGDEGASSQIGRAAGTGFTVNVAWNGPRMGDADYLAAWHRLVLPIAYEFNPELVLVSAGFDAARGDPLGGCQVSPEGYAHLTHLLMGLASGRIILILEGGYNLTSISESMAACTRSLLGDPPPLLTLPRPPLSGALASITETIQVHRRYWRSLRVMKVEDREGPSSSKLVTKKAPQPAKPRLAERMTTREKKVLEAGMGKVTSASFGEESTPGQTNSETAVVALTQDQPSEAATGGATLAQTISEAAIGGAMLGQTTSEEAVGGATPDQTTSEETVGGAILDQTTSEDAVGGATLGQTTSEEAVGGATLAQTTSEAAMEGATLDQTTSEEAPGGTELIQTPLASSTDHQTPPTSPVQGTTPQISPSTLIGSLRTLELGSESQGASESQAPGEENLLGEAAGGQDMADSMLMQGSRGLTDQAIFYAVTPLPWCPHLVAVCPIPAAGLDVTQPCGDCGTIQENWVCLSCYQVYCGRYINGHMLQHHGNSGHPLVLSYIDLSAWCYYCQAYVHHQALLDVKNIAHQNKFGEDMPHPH
Briefly: Inhibition of N-terminal GST-tagged human recombinant HDAC6 expressed in Spodoptera frugiperda incubated for 60 mins by fluorescence based analysis.

The target in assay [2] is T2, Histone deacetylase 1 (Homo sapiens, UniProt Q13547). In words: Inhibition of his-tagged human recombinant HDAC1 using fluor de lys-SIRT1 as substrate incubated for 60 mins by fluorescence based analysis.
For assay [3], the target named is T2, Histone deacetylase 1. In words: Inhibition of HDAC1 (unknown origin).
For another assay, the target named is Histone deacetylase 2 (Homo sapiens, UniProt Q92769). In words: Inhibition of human recombinant HDAC2 using fluorescent peptide p53 (379 to 382 residues) RHKK(Ac) as substrate by fluorescence based analysis.
Another assay deals with Histone deacetylase 3 (Homo sapiens, UniProt O15379).
The target of assay [4] is T1, Protein deacetylase HDAC6. Briefly: Inhibition of human recombinant HDAC6 using fluorescent peptide p53 (379 to 382 residues) RHKK(Ac) as substrate by fluorescence based analysis.
Assay [5] deals with T3, Polyamine deacetylase HDAC10 (Homo sapiens, UniProt Q969S8).
T3 sequence (Q969S8 whole entry): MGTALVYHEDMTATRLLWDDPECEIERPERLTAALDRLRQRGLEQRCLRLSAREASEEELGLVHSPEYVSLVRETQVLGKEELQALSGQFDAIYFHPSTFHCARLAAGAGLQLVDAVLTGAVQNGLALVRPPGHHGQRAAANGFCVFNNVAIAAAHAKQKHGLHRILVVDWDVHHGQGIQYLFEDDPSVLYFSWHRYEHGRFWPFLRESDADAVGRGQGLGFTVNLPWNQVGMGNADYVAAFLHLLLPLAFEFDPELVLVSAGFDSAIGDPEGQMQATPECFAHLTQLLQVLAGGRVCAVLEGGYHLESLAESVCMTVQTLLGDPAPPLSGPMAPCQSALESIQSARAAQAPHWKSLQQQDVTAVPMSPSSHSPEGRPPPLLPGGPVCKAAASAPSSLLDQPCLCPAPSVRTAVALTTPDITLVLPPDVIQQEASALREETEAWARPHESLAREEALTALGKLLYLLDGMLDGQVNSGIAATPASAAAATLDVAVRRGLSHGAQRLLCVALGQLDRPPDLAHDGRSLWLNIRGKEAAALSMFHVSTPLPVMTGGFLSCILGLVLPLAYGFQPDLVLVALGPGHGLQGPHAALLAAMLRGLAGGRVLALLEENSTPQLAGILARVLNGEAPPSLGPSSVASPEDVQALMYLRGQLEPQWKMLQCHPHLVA
Briefly: Inhibition of human recombinant HDAC10 using fluorescent peptide p53 (379 to 382 residues) RHKK(Ac) as substrate by fluorescence based analysis.

T2 sequence (Q13547 whole entry): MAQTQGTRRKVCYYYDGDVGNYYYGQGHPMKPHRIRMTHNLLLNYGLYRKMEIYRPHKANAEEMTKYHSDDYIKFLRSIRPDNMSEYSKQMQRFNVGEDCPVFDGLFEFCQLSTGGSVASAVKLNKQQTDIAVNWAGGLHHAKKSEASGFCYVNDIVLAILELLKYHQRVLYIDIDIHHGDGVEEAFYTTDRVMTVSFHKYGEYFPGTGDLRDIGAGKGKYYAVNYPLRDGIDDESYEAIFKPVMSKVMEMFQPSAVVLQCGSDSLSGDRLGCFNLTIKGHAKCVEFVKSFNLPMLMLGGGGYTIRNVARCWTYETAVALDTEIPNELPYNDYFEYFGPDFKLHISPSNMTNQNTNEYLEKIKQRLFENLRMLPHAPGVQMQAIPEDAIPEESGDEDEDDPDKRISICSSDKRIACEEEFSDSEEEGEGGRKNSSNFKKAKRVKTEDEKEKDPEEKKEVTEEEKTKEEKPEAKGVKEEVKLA
Sequence of Histone deacetylase 2 (Q92769 whole entry, the tested form may be a part): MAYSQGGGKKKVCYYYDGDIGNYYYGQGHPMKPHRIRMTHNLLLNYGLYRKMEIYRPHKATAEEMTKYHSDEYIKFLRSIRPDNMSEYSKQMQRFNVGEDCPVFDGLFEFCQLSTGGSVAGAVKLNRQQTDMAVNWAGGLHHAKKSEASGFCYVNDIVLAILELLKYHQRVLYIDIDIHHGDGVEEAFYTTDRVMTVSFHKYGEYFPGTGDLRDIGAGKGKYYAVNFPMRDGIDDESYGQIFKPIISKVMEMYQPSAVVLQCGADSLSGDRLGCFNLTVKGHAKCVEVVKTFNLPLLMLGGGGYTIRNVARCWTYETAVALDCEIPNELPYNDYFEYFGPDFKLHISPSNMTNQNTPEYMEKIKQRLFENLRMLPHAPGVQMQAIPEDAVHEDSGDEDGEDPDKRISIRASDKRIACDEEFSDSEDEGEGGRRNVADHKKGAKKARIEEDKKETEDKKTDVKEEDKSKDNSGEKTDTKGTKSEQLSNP
Sequence of Histone deacetylase 3 (O15379 whole entry, the tested form may be a part): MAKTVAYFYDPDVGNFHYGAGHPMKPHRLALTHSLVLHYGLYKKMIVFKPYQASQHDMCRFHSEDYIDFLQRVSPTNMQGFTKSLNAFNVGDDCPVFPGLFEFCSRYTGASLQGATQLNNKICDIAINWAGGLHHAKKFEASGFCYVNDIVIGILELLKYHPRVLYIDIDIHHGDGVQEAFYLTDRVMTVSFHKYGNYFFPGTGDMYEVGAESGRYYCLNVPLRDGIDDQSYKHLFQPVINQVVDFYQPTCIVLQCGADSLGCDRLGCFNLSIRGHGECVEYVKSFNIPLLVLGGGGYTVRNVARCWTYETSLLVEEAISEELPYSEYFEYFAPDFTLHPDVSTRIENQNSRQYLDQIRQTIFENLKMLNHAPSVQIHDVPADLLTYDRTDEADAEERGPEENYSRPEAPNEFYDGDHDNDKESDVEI

With `O=C(NO)c1ccc(Cn2c3c(c4cc(F)ccc42)C(=O)CCC3)cc1`, the Ratio IC50 in the assay filed under Homo sapiens came to 328.
With `CN1CCN(CC2CCc3c(c4ccccc4n3Cc3ccc(C(=O)NO)cc3)C2=O)CC1` (stereo not drawn), the Ratio IC50 in the assay listed under Homo sapiens was 345. For the same compound, the pIC50 in assay [1] is 7.92.
For `CC1(C)Cc2c(c3cc(F)ccc3n2Cc2ccc(C(=O)NO)cc2)C(=O)C1CN1CCOCC1` (stereo not drawn), the Ratio IC50 in the assay listed under Homo sapiens amounted to 41.4.
On to `CC(C)(C)OC(=O)N1CCN(CC2CCc3c(c4cc(F)ccc4n3Cc3ccc(C(=O)NO)cc3)C2=O)CC1` (stereo not drawn), for which, in the assay filed under Homo sapiens, the Ratio IC50 was determined as 311.
Take `CC(C)N1CCN(CC2CCc3c(c4cc(F)ccc4n3Cc3ccc(C(=O)NO)cc3)C2=O)CC1` (stereo not drawn): in the assay filed under Homo sapiens, the Ratio IC50 was 50.2.
On to `CCN1CCN(CC2CCc3c(c4ccccc4n3Cc3ccc(C(=O)NO)cc3)C2=O)CC1` (stereo not drawn), for which, in the assay filed under Homo sapiens, the Ratio IC50 stood at 329. In addition, the pIC50 in assay [1] was 7.85.
For the compound `CCN1CCN(CC2CCc3c(c4cc(F)ccc4n3Cc3ccc(C(=O)NO)cc3)C2=O)CC1` (stereo not drawn), the Ratio IC50 in the assay listed under Homo sapiens was determined as 202. Besides, the pIC50 in assay [1] is 7.96.
For the compound `Cc1cn(Cc2ccc(C(=O)NO)cc2)c2c1C(=O)CCC2`, the negative logarithm of the IC50 (pIC50) was 5.95 at Histone deacetylase 1 [2] and 8.70 in assay [1]. For the same compound, in the assay listed under Homo sapiens, the Ratio IC50 is 543.
As to `Cc1cn(Cc2ccc(C(=O)NO)cc2)c2c1C(=O)CC(C)(C)C2`, in the assay filed under Homo sapiens, the Ratio IC50 is 380. For the same compound, the pIC50 in assay [1] is 8.10.
Regarding `O=C(NO)c1ccc(Cn2c3c(c4ccccc42)C(=O)C(CN2CCCCC2)CC3)cc1` (stereo not drawn), in the assay filed under Homo sapiens, the Ratio IC50 worked out at 284. For the same compound, the negative-log IC50 (pIC50) in assay [1] is 7.92.
Regarding `CC1CN(CC2CCc3c(c4ccccc4n3Cc3ccc(C(=O)NO)cc3)C2=O)CC(C)O1` (stereo not drawn), the negative-log IC50 (pIC50) was 6.06 at Histone deacetylase 1 [2] and 7.96 in assay [1]. The Ratio IC50 in the assay listed under Homo sapiens is 79.1.
Consider `Cc1nccn1CC1CCc2c(c3cc(F)ccc3n2Cc2ccc(C(=O)NO)cc2)C1=O` (stereo not drawn), for which the Ratio IC50 in the assay listed under Homo sapiens stood at 570. Also, the negative-log IC50 (pIC50) in assay [1] is 8.05.
In turn, `O=C(NO)c1ccc(Cn2c3c(c4ccccc42)CCCC3)cc1` gave a negative logarithm of the IC50 (pIC50) at Histone deacetylase 1 [3] of 4.96.
Consider `Cc1ccc(N2CCN(CC3CCc4c(c5ccccc5n4Cc4ccc(C(=O)NO)cc4)C3=O)CC2)cc1C` (stereo not drawn), for which, in the assay listed under Homo sapiens, the Ratio IC50 was determined as 203. The pIC50 in assay [1] was 7.40.
For `Cc1c2c(n(Cc3ccc(C(=O)NO)cc3)c1C)CCCC2=O`, in that order: 705 and 8.40.
In the case of `CC1(C)CC(=O)c2c(n(Cc3ccc(C(=O)NO)cc3)c3ccccc23)C1`, the negative logarithm of the IC50 (pIC50) on Histone deacetylase 1 [2] is 5.38; in assay [1], 7.92. The Ratio IC50 in the assay listed under Homo sapiens amounted to 345.
`O=C(NO)c1ccc(Cn2c3c(c4cc(F)ccc42)C(=O)C(CN2CCOCC2)CC3)cc1` (stereo not drawn): in the assay filed under Homo sapiens, the Ratio IC50 stood at 828. The negative-log IC50 (pIC50) in assay [1] is 8.30.
On to `CCCCN1CCN(CC2CCc3c(c4cc(F)ccc4n3Cc3ccc(C(=O)NO)cc3)C2=O)CC1` (stereo not drawn), for which the Ratio IC50 in the assay listed under Homo sapiens was determined as 373. In addition, in assay [1], the pIC50 was 8.22.
As for `CN1CCN(CC2CCc3c(c4cc(F)ccc4n3Cc3ccc(C(=O)NO)cc3)C2=O)CC1` (stereo not drawn), in the assay listed under Homo sapiens, the Ratio IC50 worked out at 530. The negative-log IC50 (pIC50) at Histone deacetylase 2 is < 4.70; at Histone deacetylase 3, < 4.70; in assay [1], 8.30; in assay [4], 8.40; in assay [5], < 4.70.
Consider `Cc1c2c(n(Cc3ccc(C(=O)NO)cc3)c1C)CC(C)(C)CC2=O`, for which the Ratio IC50 in the assay listed under Homo sapiens came to 464. Besides, in assay [1], the negative-log IC50 (pIC50) was 7.96.
For the compound `CC1(C)Cc2c(c3ccccc3n2Cc2ccc(C(=O)NO)cc2)C(=O)C1CN1CCOCC1` (stereo not drawn), the Ratio IC50 in the assay filed under Homo sapiens worked out at 153.
Consider `CC1(C)CC(=O)c2c(n(Cc3ccc(C(=O)NO)cc3)c3ccc(Br)cc23)C1`, for which, in the assay filed under Homo sapiens, the Ratio IC50 came out at 42.4.
Turning to `CN1CCN(CC2C(=O)c3c(n(Cc4ccc(C(=O)NO)cc4)c4ccc(F)cc34)CC2(C)C)CC1` (stereo not drawn), the Ratio IC50 in the assay listed under Homo sapiens came out at 182. The pIC50 in assay [1] was 8.70.
Regarding `O=C(NO)c1ccc(Cn2c3c(c4ccccc42)C(=O)C(CN2CCN(c4ccc(F)cc4)CC2)CC3)cc1` (stereo not drawn), the Ratio IC50 in the assay listed under Homo sapiens is 661. In assay [1], the pIC50 is 8.10.
As to `CC(C)(C)OC(=O)N1CCN(CC2CCc3c(c4ccccc4n3Cc3ccc(C(=O)NO)cc3)C2=O)CC1` (stereo not drawn), the Ratio IC50 in the assay filed under Homo sapiens is 327.
With `Cc1nccn1CC1C(=O)c2c(n(Cc3ccc(C(=O)NO)cc3)c3ccccc23)CC1(C)C` (stereo not drawn), the Ratio IC50 in the assay filed under Homo sapiens was 166. The pIC50 in assay [1] is 7.46.
With `Cc1nn(Cc2ccc(C(=O)NO)cc2)c2c1C(=O)CC(C)(C)C2`, in the assay listed under Homo sapiens, the Ratio IC50 amounted to 135. Further, the negative logarithm of the IC50 (pIC50) in assay [1] was 7.92.
